Here are results for three compounds from patent US20030066100A1, “Capacitative calcium entry mechanism in porcine oocytes” (priority 2001, published 2003).

Holding throughout (assay type): cell-based
Assay [1] has as its system porcine oocytes. In words: Capacitative Ca2+ entry in oocytes expressing Drosophila trp. The note with it: 1 mM La3+. An excerpt: The plasmid vector pBluescript KS, containing the Drosophila trp cDNA ctrp-9 downstream of the T7 promoter (a generous gift from C. Montell) was transfected into Escherichia coli DH5α cells. Plasmid DNA was isolated and linearized with the restriction endonuclease KpnI (Promega Corp., Madison, Wis.) and mRNA was transcribed from the cDNA with T7 polymerase using the RiboMAX™ Large Scale RNA Production System (Promega), following the manufacturer's recommendations. In order to produce capped RNA transcripts, the reaction was performed in the presence of 3 mM m^7G(5′)ppp(5′)G (Boehringer-Mannheim Corp., Indianapolis, Ind.). Purified RNA was precipitated with 0.3 M sodium acetate and ethanol. The pellet was resuspended in diethylpyrocarbonate (DEPC)-treated water containing RNasin (1 IU/μl; from Promega) to a final concentration of approximately 800 ng/μl and the samples were stored in 3 μl aliquots at −70° C.
The Drosophila trp protein was expressed in porcine oocytes by injecting approximately 32 pg mRNA made by in vitro transcription of the cDNA and allowing 15 hours for translation. Control oocytes were injected with the carrier medium (DEPC-treated water). […] The baseline fluorescence of the oocytes was then recorded in Ca^2+-free HEPES-TL-PVA, and changes in [Ca^2+]i were measured for 20-30 minutes after the addition of Ca^2+-containing medium.

Assay [2] concerns porcine oocytes. Briefly: Divalent cation influx after InsP3 injection, Mn2+-quench technique. On the procedure: (§1) The oocytes were loaded with the Ca^2+ indicator dye fura-2 by being incubated in the presence of 2 μM acetoxymethyl ester form of the dye and 0.02% pluronic F-127 (both from Molecular Probes, Inc., Eugene, Oreg.) for 40-50 minutes. After incubation the oocytes were rinsed, exposed to various treatments and the changes in the intracellular free Ca^2+ concentration ([Ca^2+]i) were followed using a Photoscan-2 photon counting fluorescent microscope system (Nikon Corp., Tokyo, Japan) as described by Macháty et al., Biol Reprod 1997a; 56:921-930. Fluorescence was recorded by calculating the ratio of fura-2 fluorescence at 510 mn excited by UV light alternatively at 340 and 380 nm. Intracellular free Ca^2+ levels are presented as fluorescent ratio values with ratios of 1.2 and 6.5 representing 65 and 602 nM Ca^2+, respectively.
To induce the release of Ca^2+ from the intracellular stores, the second messenger InsP3 was injected into the oocytes' cytoplasm using a microinjector (Narishige Co. Ltd., Tokyo, Japan). InsP3 was dissolved in carrier medium consisting of 10 mM Hepes and 100 μM EGTA buffered at pH 7.0. The amount injected was about 40 pl, which is 4% of the total cytoplasmic volume of ˜1000 pl. Microinjection was performed in HEPES-TL-PVA on a heated stage of a Nikon Diaphot inverted microscope (Nikon Corp., Tokyo, Japan).
The onset of a divalent cation influx after a Ca^2+ transient was investigated by using the manganese (Mn^2+)-quench technique disclosed by Hallam et al., Biochem. J. 1988; 255:179-184. Release of Ca^2+ from the intracellular stores was stimulated by intracellular injection of approximately 40 pl of 2.5 μM InsP3, the InsP3 receptor agonist. As a Ca^2+ surrogate, Mn^2+ was added to the external medium. Mn^2+ was reported to be able to translocate across the plasma membrane, bind fura-2 and quench its fluorescence. This technique enables measurement of divalent cation influx even when Ca^2+ release from the internal stores is coincident. The entry of Mn^2+ into the cell was monitored by imaging the resulting quench in fura-2 fluorescence at 510 nm excited alternatively at 340 and 360 nm. While the signal resulting from the 340 nm excitation is [Ca^2+]i sensitive, at 360 nm fura-2 fluorescence is independent of [Ca^2+]i and any decrease in fluorescence is due only to Mn^2+ entry.

Assay [3] has as its system porcine oocytes. Briefly: Capacitative Ca2+ entry after store depletion and re-addition of Ca2+ (fura-2 fluorescence). As to the method:
as §1
A Ca^2+ influx was generated in porcine oocytes by the depletion of the intracellular Ca^2+ stores. […] It is routinely used to drain the intracellular stores of their Ca^2+ content. Fura-2-loaded oocytes were incubated in Ca^2+-free HEPES-TL-PVA medium in the presence of 10-50 μM thapsigargin for 3 hours to deplete intracellular Ca^2+ stores. After washing in Ca^2+-free medium (to remove thapsigargin and ensure that the intracellular stores remain empty), normal Ca^2+-containing medium was added to the oocytes and the changes in the [Ca^2+]i were measured. Oocytes incubated in Ca^2+-free HEPES-TL-PVA for 3 hours without thapsigargin were used to show the Ca^2+ entry under normal conditions, when the intracellular Ca^2+ stores were full.

Assay [4] relates to porcine oocytes. In words: Ca2+ release by thapsigargin in Ca2+-free medium (fura-2 fluorescence). On the procedure:
as §1
A Ca^2+ influx was generated in porcine oocytes by the depletion of the intracellular Ca^2+ stores. […] It is routinely used to drain the intracellular stores of their Ca^2+ content. Fura-2-loaded oocytes were incubated in Ca^2+-free HEPES-TL-PVA medium in the presence of 10-50 μM thapsigargin for 3 hours to deplete intracellular Ca^2+ stores. After washing in Ca^2+-free medium (to remove thapsigargin and ensure that the intracellular stores remain empty), normal Ca^2+-containing medium was added to the oocytes and the changes in the [Ca^2+]i were measured. […]

Where [5] appears, read: 1 mM La3+, InsP3 microinjected, Mn2+ added.

Structures are written as SMILES. “Also recorded” adds a separate entry of the source.

Consider `[La+3]` [La^3+, lanthanum], for which the “block of Ca2+ entry-evoked [Ca2+]i increase” value with porcine oocytes [1] is given as “completely blocked”. In addition, in the assay with porcine oocytes [2] (setting [5]), the “block of cation influx and decline in fluorescence at both wavelengths” value is “totally blocked”; the “oocytes in which fluorescence intensities stayed near the resting values” is reported as 7/7. In the assay on porcine oocytes [3] (1 mM La3+), the “block of thapsigargin-evoked Ca2+ entry” value is “totally inhibited; also recorded: completely blocked” and the “oocytes in which thapsigargin-evoked Ca2+ entry was blocked” value is reported as 11/11.

`C/C=C(/C)C(=O)O[C@H]1C(C)=C2[C@H]([C@@H]1OC(=O)CCCCCCC)[C@@](C)(OC(C)=O)C[C@H](OC(=O)CCC)[C@@]1(O)[C@H]2OC(=O)[C@@]1(C)O` [thapsigargin]: in the assay with porcine oocytes [3] (after thapsigargin store depletion), the “start of the increase in [Ca2+]i after adding the HEPES-TL-PVA medium” value lay within 0 to 300 s. Further, the “oocytes showing Ca2+ entry (rise in [Ca2+]i) after re-addition of Ca2+” value in the assay on porcine oocytes [3] (stores emptied with thapsigargin for 3 hours in Ca2+-free medium) is reported as 15 out of 18. Besides, in the assay with porcine oocytes [4] (10-50 μM thapsigargin in Ca2+-free medium), the “change in [Ca2+]i” value is “induced an increase in [Ca^2+]i”. Also, the “increase in [Ca2+]i relative to 50 μM” value in the assay with porcine oocytes [4] (10 and 20 μM thapsigargin, Ca2+-free medium) is “slightly smaller increases in [Ca^2+]i”.

`O=P(O)(O)O[C@@H]1[C@H](O)[C@H](O)[C@@H](OP(=O)(O)O)[C@H](OP(=O)(O)O)[C@H]1O` [InsP3, inositol 1,4,5-trisphosphate]: in the assay with porcine oocytes [2] (InsP3 microinjected, 3 mM Mn2+ in the external medium), the “oocytes with rapid decline in fluorescence well below the basal value (Mn2+ entry)” value is given as 14/14. Moreover, the “oocytes with transient elevation in fluorescence at 340 nm excitation (increase in [Ca2+]i)” value in the assay on porcine oocytes [2] (injection of about 40 pl of 2.5 μM InsP3) is 16 out of 16.
